Entries after “also recorded” stand apart in the source; their conditions may differ.
Key:
miR-320a = test: qRT-PCR of miR-320a in gastrocnemius of drug-treated mdx23 mice; type: in vivo, mouse; settings: 5 mg/kg prednisolone or 15 mg/kg VBP-15, p=0.22 for prednisone
Procedure: (§1) FIG. 8—Treatment with anti-inflammatories modulates dystrophin-targeting microRNAs. (a) VBP15 and prednisolone reduces dystrophin-targeting microRNA levels; miR-146a, miR-146b and miR-223 levels in the gastrocnemius of wild-type mice and vehicle, prednisolone, or […] mdx23 mice were assessed via qPCR; results were normalized to wild-type levels. […] All statistical analyses were performed in Prism Graph Pad 5.0, One-Way ANOVA with Bonferroni post-test (*p<0.05; **p<0.01).
(§2) 20 mg frozen muscle was homogenized in TriZol reagent (Invitrogen), followed by RNA extraction. microRNAs were quantified with 7900HT Fast Real-Time PCR system using mouse-specific TaqMan microRNA assays with U6 snRNA as a control. Results were calculated as above using the 2(−ΔΔC(T)) method (Schmittgen, 2001).
(§3) Mdx23 (C57BL/10ScSn-Dmd/J) mice (The Jackson laboratories) were dosed with 5 mg/kg prednisolone or 15 mg/kg […] as previously reported (Heier et al, 2013).
(§4) Exon skipping therapies in DMD will likely be used in combination with either current glucocorticoid standards of care, or next-generation steroid derivatives moving towards clinical use (Heier et al 2012). Because these drugs affect transcriptional regulation and/or inflammatory miRNA signaling, we tested what their effects on levels of dystrophin-regulating miRNAs might be.

miR-223 = test: qRT-PCR of miR-223 in gastrocnemius of drug-treated mdx23 mice; type: in vivo, mouse; settings: 5 mg/kg prednisolone or 15 mg/kg VBP-15
Procedure: as §1, §2, §3, §4

miR-146a = test: qRT-PCR of miR-146a in gastrocnemius of drug-treated mdx23 mice; type: in vivo, mouse; settings: 5 mg/kg prednisolone or 15 mg/kg VBP-15, p<0.01
Procedure: as §1, §2, §3, §4

miR-146b = test: qRT-PCR of miR-146b in gastrocnemius of drug-treated mdx23 mice; type: in vivo, mouse; settings: 5 mg/kg prednisolone or 15 mg/kg VBP-15
Procedure: as §1, §2, §3, §4

miR-382 = test: qRT-PCR of miR-382 in gastrocnemius of drug-treated mdx23 mice; type: in vivo, mouse; settings: 5 mg/kg prednisolone or 15 mg/kg VBP-15, p<0.05 for prednisone
Procedure: as §1, §2, §3, §4

human dystrophin 3′UTR = test: Dys 3′UTR luciferase reporter assay in C2C12 myoblasts co-transfected with microRNA mimics; type: cell-based, mouse; settings: C2C12 myoblasts co-transfected with 200 ng Dys 3′UTR reporter and 50 nM microRNA mimic, Renilla luciferase normalized to internal control
dystrophin protein = test: Systemic delivery of PMO to mdx23 mice, dystrophin rescue by SILAM mass spectrometry and immunoblot; type: in vivo, mouse; settings: single 800 mg/kg intravenous injection, 1 month post-injection, SILAM mass spectrometry
Procedure: FIG. 7—Dystrophin-regulating microRNAs levels promote observed variability of dystrophin protein production in PMO-treated mdx mice. (a) Dystrophin levels were analyzed via mass spec and miRNA levels were assessed in the diaphragm, TA and Gastroc. […] All statistical analyses were performed in Prism Graph Pad 5.0, One-Way ANOVA with Bonferroni post-test (*p<0.05; **p<0.01; ***p<0.001). (b) The tricep, TA and gastroc in 3 PMO-treated mice were chosen for analysis. Dystrophin levels were analyzed via mass spec and microRNA levels were analyzed via qPCR. For analysis, Each miRNA's values were grouped by muscle, mean and SD were calculated. The deviation from the appropriate mean was calculated for each individual miRNA value. These deviations were assigned a score of low, mid or high, defined by the following rule: those falling within 0.5 SD of the mean were assigned a “mid” score, those greater than 0.5 SD of the mean were assigned a “high score”, and those less than 0.5 SD of the mean were assigned a “low” score. Mean % dystrophin levels were then compared using an independent t-test. […]
We tested whether variable levels of dystrophin-regulating microRNAs in muscle […] of dystrophin rescue by exon skipping. […] From one mouse, adjacent cryosections of the tibialis anterior (TA), gastrocnemius, and diaphragm muscles were analyzed for dystrophin protein content by SILAM mass spectrometry (Brown et al. 2013) and immunoblotting, and for dystrophin-regulating microRNA content by TaqMan (real time PCR) assays (FIG. 7a).

C[C@]12C=CC(=O)C=C1CC[C@@H]1[C@@H]2[C@@H](O)C[C@@]2(C)[C@H]1CC[C@]2(O)C(=O)CO [prednisone, prednisolone]
miR-320a levels, increase in treated mice (miR-320a): increased
miR-223 levels over untreated mice (miR-223): trend of decreases
miR-146a levels over untreated mice (miR-146a): significantly reduced
miR-146b levels over untreated mice (miR-146b): trend of decreases
miR-382 levels, increase in treated mice (miR-382): increased

C[C@@H]1CC2C3CCC4=CC(=O)C=C[C@]4(C)C3=CC[C@]2(C)[C@@]1(O)C(=O)CO (stereo partly drawn) [VBP-15, (10S,13S,16R,17R)-17-hydroxy-17-(2-hydroxyacetyl)-10,13,16-trimethyl-6,7,8,10,12,13,14,15,16,17-decahydro-3H-cyclopenta[a]phenanthren-3-one]
miR-223 levels over untreated mice (miR-223): trend of decreases
miR-146a levels over untreated mice (miR-146a): significantly reduced
miR-146b levels over untreated mice (miR-146b): trend of decreases

miR-146a: microRNA mimic; hsa-miR-146a 3′-UUGGGUACCUUAAGUCAAGAGU-5′ (SEQ ID NO: 1) (listed as RNA, chemistry not given here; listed 3' to 5'; listed as Homo sapiens)
luciferase protein expression from Dys 3′UTR reporter (human dystrophin 3′UTR): significantly inhibited

miR-374a: microRNA mimic; hsa-miR-374a 3′-GUGAAUAGUCCAACAUAAUAUU-5′ (SEQ ID NO: 9) (listed as RNA, chemistry not given here; listed 3' to 5'; listed as Homo sapiens)
luciferase protein expression from Dys 3′UTR reporter (human dystrophin 3′UTR): significantly inhibited; also recorded: most potent downregulation; also recorded: strong inhibition

miR-146b-5p: microRNA mimic; hsa-miR-146b-5p 3′-UCGGAUACCUUAAGUCAAGAGU-5′ (SEQ ID NO: 3) (listed as RNA, chemistry not given here; listed 3' to 5'; listed as Homo sapiens)
luciferase protein expression from Dys 3′UTR reporter (human dystrophin 3′UTR): significantly inhibited
luciferase protein expression from Dys 3′UTR reporter (human dystrophin 3′UTR; listed as miR-146b): most potent downregulation; also recorded: strong inhibition

miR-223: microRNA mimic; hsa-miR-223 3′-ACCCCAUAAACUGUUUGACUGU-5′ (SEQ ID NO: 5) (listed as RNA, chemistry not given here; listed 3' to 5'; listed as Homo sapiens)
luciferase protein expression from Dys 3′UTR reporter (human dystrophin 3′UTR): significantly inhibited

miR-320a: microRNA mimic; hsa-miR-320a 3′-AGCGGGAGAGUUGGGUCGAAAA-5′ (SEQ ID NO: 7) (listed as RNA, chemistry not given here; listed 3' to 5'; listed as Homo sapiens)
luciferase protein expression from Dys 3′UTR reporter (human dystrophin 3′UTR): significantly inhibited

miR-382: microRNA mimic; hsa-miR-382 3′-GCUUAGGUGGUGCUUGUUGAAG-5′ (SEQ ID NO: 14) (listed as RNA, chemistry not given here; listed 3' to 5'; listed as Homo sapiens)
luciferase protein expression from Dys 3′UTR reporter (human dystrophin 3′UTR): significantly inhibited

exon 23-targeting morpholino: PMO (Gene Tools): 5′-GGCCAAACCTCGGCTTACCTGAAAT-3′ (SEQ ID NO:33) (all phosphorodiamidate morpholino (PMO); listed as Mus musculus)
dystrophin rescue in diaphragm (dystrophin protein): 5 % wild-type levels
dystrophin rescue in gastrocnemius (dystrophin protein): 5 % wild-type levels
dystrophin rescue in tibialis anterior (TA) (dystrophin protein): 40 % wild-type levels
